pEC50, pIC50: −log10 of the molar value. Like-named read-outs stand apart in the source and are kept apart here.
Experiments:
[1] = biological target: T1, HBV core protein (C-terminal truncated core protein, 149 amino acids of the N-terminal assembly domain, BODIPY-FL labelled) (UniProt P03146); test: Biochemical capsid assembly assay (fluorescence quenching)
T1 construct: fused on or other part: A single cysteine added after residue 149, at position 150; It carries the BODIPY-FL maleimide label
In short: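 Fluorescence quenching of BODIPY-FL-labelled core dimers (1.0 to 2.0 μM) in 50 mM HEPES pH 7.5; compounds at 8 concentrations, 0.5 log-unit dilutions from top 100, 31.6 or 10 μM, 0.5% DMSO. Assembly started with NaCl to […]; fluorescence (ex 477/em 525 nm) read after 6 min. EC50 by non-linear regression.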

HBV (HepAD38 cells) = test: HBV replication assay: determination of HBV DNA from the supernatants of HepAD38 cells; assay type: cell-based; details: Hepatitis B virus, 144 h, HBV DNA in HepAD38 supernatant at day 6, qPCR, read-out: Cell activity
Description: Determination of HBV DNA from the Supernatants of HepAD38 Cells
The anti-HBV activity was analysed in the stable transfected cell line HepAD38, which has been described to secrete high levels of HBV virion particles (Ladner et al., 1997). In brief, HepAD38 cells were cultured at 37° C. at 5% CO2 and 95% humidity in 200 μl maintenance medium, which was Dulbecco's modified Eagle's medium/Nutrient Mixture F-12 (Gibco, Karlsruhe), 10% fetal bovine serum (PAN Biotech Aidenbach) supplemented with 50 μg/ml penicillin/streptomycin (Gibco, Karlsruhe), 2 mM L-glutamine (PAN Biotech, Aidenbach), 400 μg/ml G418 (AppliChem, Darmstadt) and 0.3 μg/ml tetracycline. Cells were subcultured once a week in a 1:5 ratio, but were usually not passaged more than ten times. For the assay 60,000 cells were seeded in maintenance medium without any tetracycline into each well of a 96-well plate and treated with serial half-log dilutions of test compound. To minimize edge effects the outer 36 wells of the plate were not used but were filled with assay medium. On each assay plate six wells for the virus control (untreated HepAD38 cells) and six wells for the cell control (HepAD38 cells treated with 0.3 μg/ml tetracycline) were allocated, respectively. In addition, one plate set with reference inhibitors like BAY 41-4109, entecavir, and lamivudine instead of screening compounds were prepared in each experiment. In general, experiments were performed thrice in triplicates. At day 6 HBV DNA from 100 μl filtrated cell culture supernatant (AcroPrep Advance 96 Filter Plate, […] Supor membran, PALL GmbH, Dreieich) was automatically purified on the MagNa Pure LC instrument using the MagNA Pure 96 DNA and Viral NA Small Volume Kit (Roche Diagnostics, Mannheim) according to the instructions of the manufacturer. EC50 values were calculated from relative copy numbers of HBV DNA In brief, 5 μl of the 100 μl eluate containing HBV DNA were subjected to PCR LC480 Probes Master Kit (Roche) together with 1 μM antisense primer […], 0.5 μM sense primer […], 0.3 μM hybprobes […]-FL and LC640-[…]-PH (TIBMolBiol, Berlin) to a final volume of 12.5 μl. The PCR was performed on the Light Cycler 480 real time system (Roche Diagnostics, Mannheim) using the following protocol: Pre-incubation for 1 min at 95° C., amplification: 40 cycles×(10 sec at 95° C., 50 sec at 60° C., 1 sec at 70° C.), cooling for 10 sec at 40° C. Viral load was quantitated against known standards using HBV plasmid DNA of pCH-9/3091 (Nassal et al., 1990, Cell 63: 1357-1363) and the LightCycler 480 SW 1.5 software (Roche Diagnostics, Mannheim) and EC50 values were calculated using non-linear regression with GraphPad Prism 6 (GraphPad Software Inc., La Jolla, USA).

[2] = read-out: Assembly activity, assembly started with NaCl, fluorescence read after 6 min
[3] = assembly started with NaCl, fluorescence read after 6 min, read-out: Assembly activity

T1 sequence (P03146 whole entry, the tested form may be a part): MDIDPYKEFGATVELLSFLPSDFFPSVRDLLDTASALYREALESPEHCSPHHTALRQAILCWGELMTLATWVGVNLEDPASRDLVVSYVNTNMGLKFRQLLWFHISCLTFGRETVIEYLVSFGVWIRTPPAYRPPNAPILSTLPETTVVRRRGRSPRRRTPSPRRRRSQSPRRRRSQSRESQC

Question: How did the pIC50 [1, 2] turn out when Cc1c(F)ccc2[nH]c(C(=O)N3CCn4ncc(C(=O)N(C)C5(c6cccc(C(=O)O)c6)CC5)c4C3)cc12 [Example 35, 3-{1-[N-methyl-5-(5-fluoro-4-methyl-1H-indole-2-carbonyl)-4H,5H,6H,7H-pyrazolo[1,5-a]pyrazine-3-amido]cyclopropyl}benzoic acid] was run?
Answer: > 5.30

Question: And the pEC50 (HBV (HepAD38 cells))?
Answer: > 6.00

Question: CN1C(=O)c2c3c(nn2CC12CC2)CCN(C(=O)c1cc2c(F)cccc2[nH]1)C3 [Example 37, 12′-(4-fluoro-1H-indole-2-carbonyl)-4′-methyl-4′,7′,8′,12′-tetraazaspiro[cyclopropane-1,5′-tricyclo[7.4.0.0^2, □]tridecane]-1′,8′-dien-3′-one] was tested. Which pIC50 [1, 2] did it give?
Answer: > 5.30

Question: And the pEC50 (HBV (HepAD38 cells))?
Answer: > 6.00

Question: COCC1(N(C)C(=O)c2onc3c2CN(C(=O)c2cc4ccccc4[nH]2)CC3)CC1 [Example 38, 5-(1H-indole-2-carbonyl)-N-[1-(methoxymethyl)cyclopropyl]-N-methyl-4H,5H,6H,7H-[1,2]oxazolo[4,3-c]pyridine-3-carboxamide] was tested. Which pIC50 [1, 3] did it give?
Answer: > 5.30

Question: What about the pEC50 (HBV (HepAD38 cells)) of the same compound?
Answer: > 6.00

Question: How did the pIC50 [1, 2] turn out when CN(C(=O)c1onc2c1CN(C(=O)c1cc3ccccc3[nH]1)CC2)C1CC1 [Example 39, N-cyclopropyl-5-(1H-indole-2-carbonyl)-N-methyl-4,5,6,7-tetrahydroisoxazolo[4,3-c]pyridine-3-carboxamide] was run?
Answer: > 5.30

Question: And the pEC50 (HBV (HepAD38 cells))?
Answer: > 6.00

Question: What does the source list for C[C@@H](NC(=O)c1onc2c1CN(C(=O)c1cc3ccccc3[nH]1)CC2)C(F)(F)F [Example 40, 5-(1H-indole-2-carbonyl)-N-[(2R)-1,1,1-trifluoropropan-2-yl]-4H,5H,6H,7H-[1,2]oxazolo[4,3-c]pyridine-3-carboxamide]?
Answer: pIC50 [1, 3]: > 5.30; pEC50 (HBV (HepAD38 cells)): > 6.00

Question: With CC1Cn2cnc(C(=O)N(C)C3(c4cccc(C(=O)O)c4)CC3)c2CN1C(=O)c1cc2ccccc2[nH]1 (stereo not drawn) [Example 41, 3-{1-[N-methyl-7-(1H-indole-2-carbonyl)-6-methyl-5H,6H,7H,8H-imidazo[1,5-a]pyrazine-1-amido]cyclopropyl}benzoic acid] as the compound, how does the pIC50 [1, 2] read?
Answer: > 5.30

Question: What about the pEC50 (HBV (HepAD38 cells)) of the same compound?
Answer: 5.00 to 6.00

Question: How did the pIC50 [1, 3] turn out when CN(C(=O)c1cnn2c1CN(C(=O)c1cc3c(F)c(F)ccc3[nH]1)CC2)C1(c2cccc(C(=O)O)c2)CC1 [Example 42, 3-{1-[N-methyl-5-(4,5-difluoro-1H-indole-2-carbonyl)-4H,5H,6H,7H-pyrazolo[1,5-a]pyrazine-3-amido]cyclopropyl}benzoic acid] was run?
Answer: > 5.30

Question: What about the pEC50 (HBV (HepAD38 cells)) of the same compound?
Answer: 5.00 to 6.00

Question: How did the pIC50 [1, 2] turn out when O=C1NC2(CC2)Cn2nc3c(c21)CN(C(=O)c1cc2ccccc2[nH]1)CC3 [Example 43, 12′-(1H-indole-2-carbonyl)-4′,7′,8′,12′-tetraazaspiro[cyclopropane-1,5′-tricyclo[7.4.0.0^2, D]tridecane]-1′,8′-dien-3′-one] was run?
Answer: > 5.30

Question: What about the pEC50 (HBV (HepAD38 cells)) of the same compound?
Answer: 5.00 to 6.00

Question: How did the pIC50 [1, 3] turn out when CN(C(=O)c1cnn2c1CN(C(=O)c1cc3c(Cl)cccc3[nH]1)CC2)C1(c2ncc(C(=O)O)cn2)CC1 [Example 45, 2-{1-[N-methyl-5-(4-chloro-1H-indole-2-carbonyl)-4H,5H,6H,7H-pyrazolo[1,5-a]pyrazine-3-amido]cyclopropyl}pyrimidine-5-carboxylic acid] was run?
Answer: > 5.30

Question: And the pEC50 (HBV (HepAD38 cells))?
Answer: 5.00 to 6.00

Question: How did the pIC50 [1, 2] turn out when C[C@@H](NC(=O)c1noc2c1CN(C(=O)c1cc3ccccc3[nH]1)CC2)C(F)(F)F [Example 46, 5-(1H-indole-2-carbonyl)-N-[(2R)-1,1,1-trifluoropropan-2-yl]-4H,5H,6H,7H-[1,2]oxazolo[4,5-c]pyridine-3-carboxamide] was run?
Answer: > 5.30

Question: And the pEC50 (HBV (HepAD38 cells))?
Answer: > 6.00

Question: What does the source list for CN(C(=O)c1cnn2c1CN(C(=O)c1cc3ccccc3[nH]1)CC2)C1(COc2ccc(C(=O)O)cc2)CC1 [Example 47, 4-({1-[N-methyl-5-(1H-indole-2-carbonyl)-4H,5H,6H,7H-pyrazolo[1,5-a]pyrazine-3-amido]cyclopropyl}methoxy)benzoic acid]?
Answer: pIC50 [1, 3]: > 5.30; pEC50 (HBV (HepAD38 cells)): > 6.00

Question: What does the source list for CN(C(=O)c1[nH]nc2c1CN(C(=O)c1cc3c(Cl)cccc3[nH]1)CC2)C1(c2ccc(C(=O)O)cc2)CC1 [Example 49, 4-{1-[N-methyl-5-(4-chloro-1H-indole-2-carbonyl)-2H,4H,5H,6H,7H-pyrazolo[4,3-c]pyridine-3-amido]cyclopropyl}benzoic acid]?
Answer: pIC50 [1, 3]: > 5.30; pEC50 (HBV (HepAD38 cells)): 5.00 to 6.00

Question: What does the source list for CN(C(=O)c1cnn2c1CN(C(=O)c1cc3cc(F)c(Cl)cc3[nH]1)CC2)C1(c2ccc(C(=O)O)cc2)CC1 [Example 50, 4-{1-[N-methyl-5-(6-chloro-5-fluoro-1H-indole-2-carbonyl)-4H,5H,6H,7H-pyrazolo[1,5-a]pyrazine-3-amido]cyclopropyl}benzoic acid]?
Answer: pIC50 [1, 3]: > 5.30; pEC50 (HBV (HepAD38 cells)): > 6.00

Question: What does the source list for CN(C(=O)c1cnn2c1CN(C(=O)c1cc3c(Cl)cccc3[nH]1)CC2)C1(c2ccc(C(=O)O)cc2)CC1 [Example 51, 4-{1-[N-methyl-5-(4-chloro-1H-indole-2-carbonyl)-4H,5H,6H,7H-pyrazolo[1,5-a]pyrazine-3-amido]cyclopropyl}benzoic acid]?
Answer: pIC50 [1, 3]: > 5.30; pEC50 (HBV (HepAD38 cells)): > 6.00

Question: CN(C(=O)c1cnn2c1CN(C(=O)c1cc3c(F)c(F)ccc3[nH]1)CC2)C1(c2ccc(C(=O)O)cc2)CC1 [Example 52, 4-{1-[N-methyl-5-(4,5-difluoro-1H-indole-2-carbonyl)-4H,5H,6H,7H-pyrazolo[1,5-a]pyrazine-3-amido]cyclopropyl}benzoic acid] was tested. Which pIC50 [1, 3] did it give?
Answer: > 5.30

Question: What about the pEC50 (HBV (HepAD38 cells)) of the same compound?
Answer: > 6.00

Question: What does the source list for Cc1c(F)ccc2[nH]c(C(=O)N3CCn4ncc(C(=O)N(C)C5(c6ccc(C(=O)O)cc6)CC5)c4C3)cc12 [Example 53, 4-{1-[N-methyl-5-(5-fluoro-4-methyl-1H-indole-2-carbonyl)-4H,5H,6H,7H-pyrazolo[1,5-a]pyrazine-3-amido]cyclopropyl}benzoic acid]?
Answer: pIC50 [1, 3]: > 5.30; pEC50 (HBV (HepAD38 cells)): > 6.00

Question: Cc1cc(F)cc2[nH]c(C(=O)N3CCn4ncc(C(=O)N(C)C5(c6ccc(C(=O)O)cc6)CC5)c4C3)cc12 [Example 54, 4-{1-[N-methyl-5-(6-fluoro-4-methyl-1H-indole-2-carbonyl)-4H,5H,6H,7H-pyrazolo[1,5-a]pyrazine-3-amido]cyclopropyl}benzoic acid] was tested. Which pIC50 [1, 3] did it give?
Answer: > 5.30

Question: What about the pEC50 (HBV (HepAD38 cells)) of the same compound?
Answer: > 6.00

Question: CN(C(=O)c1[nH]nc2c1CN(C(=O)c1cc3cc(F)c(Cl)cc3[nH]1)CC2)C1(c2ccc(C(=O)O)cc2)CC1 [Example 55, 4-{1-[N-methyl-5-(6-chloro-5-fluoro-1H-indole-2-carbonyl)-2H,4H,5H,6H,7H-pyrazolo[4,3-c]pyridine-3-amido]cyclopropyl}benzoic acid] was tested. Which pIC50 [1, 2] did it give?
Answer: > 5.30

Question: And the pEC50 (HBV (HepAD38 cells))?
Answer: 5.00 to 6.00

Question: With CN(C(=O)c1cnn2c1CN(C(=O)c1cc3cc(F)c(Cl)cc3[nH]1)CC2)C1(c2ncc(C(=O)O)cn2)CC1 [Example 57, 2-{1-[N-methyl-5-(6-chloro-5-fluoro-1H-indole-2-carbonyl)-4H,5H,6H,7H-pyrazolo[1,5-a]pyrazine-3-amido]cyclopropyl}pyrimidine-5-carboxylic acid] as the compound, how does the pIC50 [1, 3] read?
Answer: > 5.30

Question: What about the pEC50 (HBV (HepAD38 cells)) of the same compound?
Answer: 5.00 to 6.00

Question: With Cc1cc(F)cc2[nH]c(C(=O)N3CCn4ncc(C(=O)N(C)C5(c6ncc(C(=O)O)cn6)CC5)c4C3)cc12 [Example 60, 2-{1-[N-methyl-5-(6-fluoro-4-methyl-1H-indole-2-carbonyl)-4H,5H,6H,7H-pyrazolo[1,5-a]pyrazine-3-amido]cyclopropyl}pyrimidine-5-carboxylic acid] as the compound, how does the pIC50 [1, 3] read?
Answer: > 5.30

Question: And the pEC50 (HBV (HepAD38 cells))?
Answer: 5.00 to 6.00

Question: How did the pIC50 [1, 3] turn out when CN(C(=O)c1cnn2c1CN(C(=O)c1cc3ccccc3[nH]1)CC2)C1(COc2ccccc2C(=O)O)CC1 [Example 61, 2-({1-[N-methyl-5-(1H-indole-2-carbonyl)-4H,5H,6H,7H-pyrazolo[1,5-a]pyrazine-3-amido]cyclopropyl}methoxy)benzoic acid] was run?
Answer: > 5.30

Question: And the pEC50 (HBV (HepAD38 cells))?
Answer: 5.00 to 6.00
